Assay results published in US20200255844A1, “MULTIPLEXED RECEPTOR-LIGAND INTERACTION SCREENS” (THE REGENTS OF THE UNIVERSITY OF CALIFORNIA, priority 2017, published 2020).
Counter-ions that a name gives are not always drawn.

Columns and labels:
Assay type in all cases: cell-based, mouse
MOR139-1 = assay: High-throughput multiplexed odorant screening (Smell-seq), barcode RNA-seq readout; settings: OR MOR139-1; pair called as hit, FDR=1%
Source text: (§1) We subsequently screened 182 odorants at three concentrations in triplicate against the OR cell library, the equivalent of ˜85,000 individual luciferase assays including controls (FIG. 10A, Table 2). Each 96-well plate in the assay contained positive control odorants and solvent DMSO wells for normalization (FIG. 16). We used the EdgeR software package to determine differentially responsive ORs based on a negative binomial model of barcode counts. We found 114 OR-odorant interactions (out of 7,200 possible), 81 of which are novel, and 24 interactions with 15 orphan receptors (FIG. 10C, FIG. 17 and Supplementary Table 4) (FDR=1%; Benjamini-Hochberg correction). Overall 28 of 39 receptors were activated by at least one odorant, and 68 of 182 odorants activated at least one OR (Table 4). We chose 37 interactions of at least 1.2 fold induction to test individually with a previously developed transient OR assay that has several important differences (FIG. 18). Of the 28 interactions called as hits at an FDR of 1%, 21 of them replicated in this orthogonal system (FIG. 17). […] Conversely, we also detect 14 interactions that this previous study tested, but called negative.

MOR203-1 = assay: as above; settings: OR MOR203-1; pair called as hit, FDR=1%
Source text: as §1

MOR170-1 = assay: High-throughput multiplexed odorant screening (Smell-seq), 96-well, barcode RNA-seq readout; settings: OR MOR170-1; pair called as hit, FDR=1%
Description: (§2) 10. High-Throughput Odorant Screening
(§3) The OR library cell line was thawed from a liquid nitrogen frozen stock into a T-225 flask (Corning) three days before seeding into a 96-well plate for screening. The library was seeded at 6,666 cells per well in 100 ul of DMEM. 24 hours later a working concentration of 1 ug/ml of doxycycline in DMEM was added to the wells. 24 hours after induction, the media was removed from each plate and replaced with 25 ul of odorant diluted in OptiMEM. Each odor was added at three different concentrations (10 uM, 100 uM, 1 mM) in triplicate with the same amount of final DMSO (1%). Each plate contained two control odorants at a three concentration (10 uM, 100 uM, 1 mM) in triplicate and three wells containing 1% DMSO dissolved in media. The library was incubated with odorants for three hours in a cell culture incubator with the lids removed.
(§4) After odor incubation, media was pipetted out of the plates and cells were lysed by adding 25 uL of ice-cold Cells-to-cDNA II Lysis Buffer (Thermo Fisher) and pipetting up and down to homogenize and lyse cells. The lysate was then heated to 75° C. for 15 minutes and flash frozen with liquid nitrogen and kept at −80 C until further processing. Then 0.5 uL DNase I (New England Biolabs) was added to lysate, and incubated at 37° C. for 15 minutes. To anneal the RT primer, 5 ul of lysate from each well was combined with 2.5 ul of 10 mM dNTPs (New England Biosciences), 1 ul of 2 uM gene specific RT primer (OL003), and 1.5 ul of H2O. The reaction was heated to 65° C. for 5 min and cooled back down to 0° C. After annealing, 1 ul of M-MuLV Reverse Transcriptase (Enzymatics), 1 ul of buffer, and 0.25 ul of RNase Inhibitor (Enzymatics) were added to each reaction. Reactions were incubated at 42° C. for 60 min and the RT enzyme was heat inactivated at 85° C. for 10 min.
(§5) For each batch, qPCR was performed on a few wells (OL005F and OL013) with SYBR FAST qPCR Mastermix to determine the number of cycles necessary for PCR based library preparation. The reaction and cycling conditions are optimized as follows: 95° C. for 3 minutes, 40 cycles of 95° C. for 3 seconds and 60° C. for 20 seconds. After qPCR, 5 ul of each RT reaction was combined with 0.4 ul of 10 uM primers containing sequencing adaptors (OL005F and OL013), 10 ul of NEB-Next Q5 Mastermix (New England Biosciences) and 4.2 ul H2O, the PCR was carried out according to the manufacturer's protocol. The forward primer contains the P7 adaptor sequence and an index identifying the well in the assay and the reverse primer contains the P5 adaptor sequence and an index identifying the plate in the assay. PCR products were pooled together by plate and purified with the DNA Clean and Concentrator Kit. Library concentrations were quantified using a Tape Station 2200 and a Qubit (Thermo Fisher). The libraries were sequenced with two index reads and a single end 75-bp read on a NextSeq 500 in high-output mode (Illumina).
(§6) 11. Analysis of Next-Generation Sequencing Data
(§7) Samples were identified via indexing by their PCR indexes adapters unique for each well (5′ end) and unique for each plate (3′ end). The well barcodes followed the 7 bp indexing scheme in (Illumina Sequencing Library Preparation for Highly Multiplexed Target Capture and Sequencing Matthias Meyer, Martin Kircher, Cold Spring Harb Protoc; 2010; doi:10.1101/pdb.prot5448). The plate indexing scheme followed the Illumina indexing scheme. Sequencing data was demultiplexed and 15 bp barcode sequences were counted with only exact matches by custom python and bash scripts.
(§8) 12. Statistical Methods for Calling Hits
(§9) Count data was then analyzed using the differential expression package EdgeR. To filter out ORs with low representation, we set a cutoff that an OR had to contain at least 0.5% of the reads from more than 399 of the 1954 test samples. This filtered out 3 of 42 ORs which were underrepresented in the cell library (MOR172-1, MOR176-1 and MOR181-1). […]

MOR23-1 = assay: High-throughput multiplexed odorant screening (Smell-seq), barcode RNA-seq readout; settings: OR MOR23-1; pair called as hit, FDR=1%
Source text: as §1

MOR4-1 = assay: as above; settings: OR MOR4-1; pair called as hit, FDR=1%
Source text: as §1

MOR5-1 = assay: High-throughput multiplexed odorant screening (Smell-seq), 96-well, barcode RNA-seq readout; settings: OR MOR5-1; pair called as hit, FDR=1%
Description: as §2, §3, §4, §5, §6, §7, §8, §9

MOR9-1 = assay: High-throughput multiplexed odorant screening (Smell-seq), barcode RNA-seq readout; settings: OR MOR9-1; pair called as hit, FDR=1%
Source text: as §1

MOR131-1 = assay: as above; settings: OR MOR131-1; pair called as hit, FDR=1%
Source text: as §1

MOR112-1 = assay: as above; settings: OR MOR112-1; pair called as hit, FDR=1%
Source text: as §1

MOR19-1 [1] = assay: High-throughput multiplexed odorant screening (Smell-seq), 96-well, barcode RNA-seq readout; settings: for OR-odorant interaction called as hit in the multiplexed screen: MOR19-1, odorant at 10 uM, 100 uM, 1 mM in triplicate, 3 hours, FDR=1% (Benjamini-Hochberg); for Minimum Activating Concentration: OR MOR 19-1, pair called as hit, FDR=1%
Source text: as §1, §2, §3
as §4, with “After annealing, 1 ul of M-MuLV Reverse Transcriptase (Enzymatics), 1 ul of buffer, and 0.25 ul of RNase Inhibitor (Enzymatics) were added to each reaction. Reactions were incubated at 42° C. for 60 min and the RT enzyme was heat inactivated at 85° C. for 10 min.” left out

MOR19-1 [2] = assay: Odorant-receptor activation luciferase assay (transient), orthogonal follow-up; settings: interactions called as hits at an FDR of 1% tested individually
Source text: We subsequently screened 182 odorants at three concentrations in triplicate against the OR cell library, the equivalent of ˜85,000 individual luciferase assays including controls (FIG. 10A, Table 2). Each 96-well plate in the assay contained positive control odorants and solvent DMSO wells for normalization (FIG. 16). We used the EdgeR software package to determine differentially responsive ORs based on a negative binomial model of barcode counts. We found 114 OR-odorant interactions (out of 7,200 possible), 81 of which are novel, and 24 interactions with 15 orphan receptors (FIG. 10C, FIG. 17 and Supplementary Table 4) (FDR=1%; Benjamini-Hochberg correction). Overall 28 of 39 receptors were activated by at least one odorant, and 68 of 182 odorants activated at least one OR (Table 4). We chose 37 interactions of at least 1.2 fold induction to test individually with a previously developed transient OR assay that has several important differences (FIG. 18). […]
The Dual-Glo Luciferase Assay System (Promega) was used to measure OR-odorant responses as previously described (Zhuang and Matsunami 2008). […] Luminescence was measured using the M1000 plate reader (Tecan). All luminescence values were normalized to Renilla luciferase activity to control for transfection efficiency in a given well. Data were analyzed with Microsoft Excel and R.

MOR165-1 = assay: High-throughput multiplexed odorant screening (Smell-seq), barcode RNA-seq readout; settings: OR MOR165-1; pair called as hit, FDR=1%
Source text: as §1

MOR119-1 = assay: as above; settings: OR MOR119-1; pair called as hit, FDR=1%
Source text: as §1

Olfr62 = assay: as above; settings: OR Olfr62; pair called as hit, FDR=1%
Source text: as §1

MOR13-1 = assay: High-throughput multiplexed odorant screening (Smell-seq), 96-well, barcode RNA-seq readout; settings: OR MOR13-1; pair called as hit, FDR=1%
Source text: We find that chemicals with similar features activate similar sets of ORs, including those receptors we deorphanize in this study. For example, the previously orphan MOR13-1 is activated by four chemicals with polar groups attached, in three cases, to stiff non-rotatable scaffolds. Another example is, MOR19-1, which has clear affinity for the salicylate functional group. To better understand how chemical similarity relates to receptor activation without relying on incomplete and sometimes arbitrary chemical descriptors, we used a previously validated computational autoencoder to represent each chemical in a ˜292 dimensional latent space, allowing nearly lossless compression of chemical structure (Data not shown). We find chemicals that activate the same OR tend to cluster distinctly (FIG. 10D, FIG. 20). […] Many, but not all of the receptors. […] Understanding the space of chemicals that activates each OR establishes the groundwork for prediction of novel odorant-OR interactions.
as §2, §3
After odor incubation, media was pipetted out of the plates and cells were lysed by adding 25 uL of ice-cold Cells-to-cDNA II Lysis Buffer (Thermo Fisher) and pipetting up and down to homogenize and lyse cells. The lysate was then heated to 75° C. for 15 minutes and flash frozen with liquid nitrogen and kept at −80 C until further processing. Then 0.5 uL DNase I (New England Biolabs) was added to lysate, and incubated at 37° C. for 15 minutes. […]
For each batch, qPCR was performed on a few wells (OL005F and OL013) with SYBR FAST qPCR Mastermix to determine the number of cycles necessary for PCR based library preparation. […] Library concentrations were quantified using a Tape Station 2200 and a Qubit (Thermo Fisher). The libraries were sequenced with two index reads and a single end 75-bp read on a NextSeq 500 in high-output mode (Illumina). […]

MOR120-1 = assay: High-throughput multiplexed odorant screening (Smell-seq), barcode RNA-seq readout; settings: OR MOR120-1; pair called as hit, FDR=1%
Source text: as §1

MOR158-1 = assay: as above; settings: OR MOR158-1; pair called as hit, FDR=1%
Source text: as §1

MOR133-1 = assay: as above; settings: OR MOR133-1; pair called as hit, FDR=1%
Source text: as §1

MOR142-1 = assay: as above; settings: OR MOR142-1; pair called as hit, FDR=1%
Source text: as §1

Molecule: CC(C=O)Cc1ccc2c(c1)OCO2 (stereo not shown) [helional]
- Minimum Activating Concentration (MOR139-1): 1000 µM
- Minimum Activating Concentration (MOR203-1): 1000 µM
- Minimum Activating Concentration (MOR170-1): 1000 µM

Molecule: CCCCCC(=O)O [Hexanoic Acid]
- Minimum Activating Concentration (MOR23-1): 1000 µM
- Minimum Activating Concentration (MOR4-1): 1000 µM
- Minimum Activating Concentration (MOR5-1): 1000 µM

Molecule: CC1COCc2cc3c(cc21)C(C)(C)C(C)C3(C)C (stereo not shown) [galaxolide]
- Minimum Activating Concentration (MOR9-1): 1000 µM
- Minimum Activating Concentration (MOR131-1): 1000 µM
- Minimum Activating Concentration (MOR112-1): 100 µM

Molecule: O=C(OCc1ccccc1)c1ccccc1O [benzyl salicylate]
- OR-odorant interaction called as hit in the multiplexed screen (MOR19-1 [1]): hits
- Minimum Activating Concentration (MOR19-1 [1]): 10 µM
- replication of the hit in the orthogonal transient OR luciferase assay (MOR19-1 [2]): did not replicate

Molecule: CCCCCCCCOC=O [Octyl formate]
- Minimum Activating Concentration (MOR165-1): 1000 µM

Molecule: CCCCCCCCCCOC(C)=O [n-Decyl acetate]
- Minimum Activating Concentration (MOR119-1): 100 µM

Molecule: O=Cc1ccccc1 [Benzaldehyde]
- Minimum Activating Concentration (Olfr62): 1000 µM
- Minimum Activating Concentration (MOR112-1): 1000 µM
- Minimum Activating Concentration (MOR13-1): 1000 µM

Molecule: CC(C)(O)CCCC1=CCC(C=O)CC1 (stereo not shown) [Lyral]
- Minimum Activating Concentration (MOR120-1): 1000 µM

Molecule: decanedioic acid (sebacic acid)
- Minimum Activating Concentration (MOR165-1): 1000 µM

Molecule: CCCCC(=O)O [Pentanoic Acid]
- Minimum Activating Concentration (MOR4-1): 1000 µM
- Minimum Activating Concentration (MOR13-1): 1000 µM

Molecule: CSSCc1ccco1 [Furfuryl methyl disulfide]
- Minimum Activating Concentration (MOR119-1): 1000 µM

Molecule: CC(=O)C1(C)CC2=C(CCCC2(C)C)CC1C (stereo not shown) [Iso E Super]
- Minimum Activating Concentration (MOR158-1): 1000 µM

Molecule: CCCCCC(=O)CC [3-Octanone]
- Minimum Activating Concentration (MOR133-1): 1000 µM

Molecule: COC(=O)c1ccccc1O [methyl salicylate]
- OR-odorant interaction called as hit in the multiplexed screen (MOR19-1 [1]): hits
- Minimum Activating Concentration (MOR19-1 [1]): 1000 µM
- replication of the hit in the orthogonal transient OR luciferase assay (MOR19-1 [2]): did not replicate

Molecule: CC(=O)OCc1ccc2c(c1)OCO2 [Piperonyl acetate]
- Minimum Activating Concentration (MOR203-1): 1000 µM
- Minimum Activating Concentration (MOR170-1): 1000 µM

Molecule: CCCCCCCCCS [Nonanethiol]
- Minimum Activating Concentration (MOR120-1): 1000 µM

Molecule: Cc1occc1SSc1ccoc1C [Bis(2-methyl-3-furyl)disulphide)]
- Minimum Activating Concentration (MOR142-1): 1000 µM
